# Measurements: PubChem BioAssay AID1259408 (Genetic Toxicology Data Bank (GENE-TOX), 2018)
# Active and inactive are the calls of the source. The rule behind the calls is not given here.
# Test system: GENE-TOX genotoxicity assays, various organisms and cells
# Assay: GENE-TOX mutagenicity studies
# Details: for call: Assay Type: In vivo carcinogenicity studies
# [1] = Species/Cell Type: Chinese hamster lung (V79) cells, Assay Type: Forward gene mutation at the HPRT or ouabain locus, Assay Code: V79+, Evaluation Type: Evaluation A (Pre-1980)
# [2] = Species/Cell Type: Drosophila melanogaster, Assay Type: Sex-linked recessive lethal gene mutation, Assay Code: SRL+, Evaluation Type: Evaluation A (Pre-1980)
# [3] = Species/Cell Type: Salmonella typhimurium (one or more of the five standard strains: TA98, TA100, TA1535, TA1537, and TA1538), Assay Type: Histidine reverse gene mutation, Ames assay, Assay Code: SAL+, Evaluation Type: Evaluation A (Pre-1980)
# [4] = Species/Cell Type: Syrian hamster embryo (SHE) cells, Assay Type: Cell transformation, clonal assay, Assay Code: CTC+, Evaluation Type: Evaluation A (Pre-1980)
# [5] = Species/Cell Type: Bacillus subtilis (H17 vs M45), Assay Type: Rec-assay, spot test, DNA effects (bacterial DNA repair), Assay Code: REW-, Evaluation Type: Evaluation A (Pre-1980)
# [6] = Species/Cell Type: Hordeum vulgare (barley), Assay Type: Chromosome aberrations, Assay Code: HOC+, Evaluation Type: Evaluation A (Pre-1980)
# [7] = Species/Cell Type: Arabidopsis species, Assay Type: Gene mutation, Assay Code: ARM+, Evaluation Type: Evaluation A (Pre-1980)
# [8] = Species/Cell Type: Vicia faba, Assay Type: Chromosome aberrations, Assay Code: VIC+, Evaluation Type: Evaluation A (Pre-1980)
# [9] = Species/Cell Type: Human lymphocytes, Assay Type: Sister-chromatid exchange (SCE) in vitro, Assay Code: SCL+, Evaluation Type: Evaluation B (Post-1980)
# [10] = Species/Cell Type: Salmonella typhimurium (one or more of the five standard strains: TA98, TA100, TA1535, TA1537, and TA1538), Assay Type: Histidine reverse gene mutation, Ames assay, Assay Code: SALT, Evaluation Type: Evaluation A (Pre-1980)
# [11] = Species/Cell Type: Drosophila melanogaster, Assay Type: Sex-linked recessive lethal gene mutation, Assay Code: SRLT, Evaluation Type: Evaluation A (Pre-1980)
smiles,measurement,setting,value
c1ccc2c(c1)-c1cc3ccccc3cc1[C@H]1O[C@@H]21,mutagenic call,[1],active; positive
same,mutagenic call,[2],active; positive
same,mutagenic call,"Species/Cell Type: Human diploid fibroblasts, Assay Type: Unscheduled DNA synthesis (UDS) in vitro, DNA effects, Assay Code: UDH+D, Dose Response: With dose response, Evaluation Type: Evaluation A (Pre-1980)",active; positive
same,mutagenic call,"Species/Cell Type: Mouse prostate cells, Assay Type: Cell transformation, Assay Code: CTM+, Evaluation Type: Evaluation A (Pre-1980)",active; positive
same,call,"Species/Cell Type: Nonhuman, Assay Code: CCG+L, Evaluation Type: Evaluation A (Pre-1980)",active; positive
same,mutagenic call,"Species/Cell Type: Nonhuman, Assay Type: Sister-chromatid exchange (SCE) in vitro, Assay Code: SC2+, Evaluation Type: Evaluation B (Post-1980)",active; positive
same,mutagenic call,[3],active; positive
same,mutagenic call,[4],active; positive
CN[C@H]1Cc2c[nH]c3c(Cl)ccc(c23)[C@]12C=C(C)C(=O)O2,mutagenic call,[5],inactive; negative
OCC1COCO1 (centres undefined),mutagenic call,"Species/Cell Type: Mammalian polychromatic erythrocytes, Assay Type: Micronucleus test, chromosome aberrations, Assay Code: MNT-, Evaluation Type: Evaluation B (Post-1980)",inactive; negative
CCCOS(C)(=O)=O,mutagenic call,[6],active; positive
same,mutagenic call,"Species/Cell Type: Hordeum vulgare (barley), Assay Type: Gene mutation, Assay Code: HOM+D, Dose Response: With dose response, Evaluation Type: Evaluation A (Pre-1980)",active; positive
same,mutagenic call,"Species/Cell Type: Mammalian germ cells, Sex: Male, Assay Type: Chromosome aberrations in vivo, Assay Code: CY9T, Evaluation Type: Evaluation A (Pre-1980)",no conclusion
same,mutagenic call,"Species/Cell Type: Mouse germ cells, Sex: Male, Assay Type: Unscheduled DNA synthesis (UDS) in vivo, DNA effects, Assay Code: UDT+, Evaluation Type: Evaluation A (Pre-1980)",active; positive
same,mutagenic call,"Species/Cell Type: Mouse, Sex: Male, Assay Type: Specific locus test, gene mutation, Assay Code: SLT+, Evaluation Type: Evaluation A (Pre-1980)",active; positive
same,mutagenic call,"Species/Cell Type: Rodents, Sex: Male, Assay Type: Dominant lethal test, Assay Code: DLT+, Evaluation Type: Evaluation A (Pre-1980)",active; positive
C[CH2][Hg][Cl],mutagenic call,"Species/Cell Type: Mammalian polychromatic erythrocytes, Assay Type: Micronucleus test, chromosome aberrations, Assay Code: MNTT, Evaluation Type: Evaluation B (Post-1980)",no conclusion
CS(=O)(=O)OC[C@H](O)[C@@H](O)COS(C)(=O)=O,mutagenic call,"Species/Cell Type: Allium cepa, Assay Type: Chromosome aberrations, Assay Code: ALC+D, Dose Response: With dose response, Evaluation Type: Evaluation A (Pre-1980)",active; positive
same,mutagenic call,[7],active; positive
same,mutagenic call,"Species/Cell Type: Hordeum vulgare (barley), Assay Type: Chromosome aberrations, Assay Code: HOC+D, Dose Response: With dose response, Evaluation Type: Evaluation A (Pre-1980)",active; positive
same,mutagenic call,[8],active; positive
O=c1[nH]c(=O)n([C@H]2C[C@H](O)[C@@H](CO)O2)cc1/C=C/Br,mutagenic call,[9],active; positive
same,mutagenic call,"Species/Cell Type: Human, Assay Type: Sister-chromatid exchange (SCE) in vitro, Assay Code: SC1+D, Dose Response: With dose response, Evaluation Type: Evaluation B (Post-1980)",active; positive
CCN(Cc1cccc(S(=O)(=O)O)c1)c1ccc(C(=C2C=CC(=[N+](CC)Cc3cccc(S(=O)(=O)[O-])c3)C=C2)c2ccccc2)cc1,mutagenic call,"Species/Cell Type: Bacillus subtilis (H17 vs M45), Assay Type: Rec-assay, spot test, DNA effects (bacterial DNA repair), Assay Code: REWT, Evaluation Type: Evaluation A (Pre-1980)",no conclusion
O=C1C=C(N2CC2)c2ccccc2C1=O,mutagenic call,[2],active; positive
C=CCOC(N)=O,mutagenic call,"Species/Cell Type: Nonhuman, Assay Type: Sister-chromatid exchange (SCE) in vivo, Assay Code: SC3+D, Dose Response: With dose response, Evaluation Type: Evaluation B (Post-1980)",active; positive
[Cl][Sn][Cl],mutagenic call,[5],inactive; negative
same,mutagenic call,"Species/Cell Type: Escherichia coli WP2 UVRA, Assay Type: Tryptophan reverse gene mutation, Assay Code: WPU-*, Activation: With metabolic activation, Evaluation Type: Evaluation A (Pre-1980)",inactive; negative
same,call,"Species/Cell Type: Nonhuman, Assay Code: CCG-L, Evaluation Type: Evaluation A (Pre-1980)",inactive; negative
same,mutagenic call,"Species/Cell Type: Nonhuman, Assay Type: Sister-chromatid exchange (SCE) in vitro, Assay Code: SC2-, Evaluation Type: Evaluation B (Post-1980)",inactive; negative
CN(C)CCC=C1c2ccccc2C2OC2c2ccccc21 (centres undefined),mutagenic call,[10],no conclusion
c1cc2ccc3cc4c(c5ccc(c1)c2c35)[C@H]1O[C@H]1CC4,mutagenic call,[1],active; positive
same,mutagenic call,"Species/Cell Type: Mouse prostate cells, Assay Type: Cell transformation, Assay Code: CTM-, Evaluation Type: Evaluation A (Pre-1980)",inactive; negative
same,call,"Species/Cell Type: Nonhuman, Assay Code: CCGT, Evaluation Type: Evaluation A (Pre-1980)",no conclusion
same,mutagenic call,[3],active; positive
Cc1ccc2ccc3c4c(ccc3c2c1)C(=O)CC4,mutagenic call,[10],no conclusion
Nc1ccc2cc3ccccc3nc2c1,mutagenic call,"Species/Cell Type: Mouse (BALB/c-3T3) cells, Assay Type: Cell transformation, Assay Code: CTB-, Evaluation Type: Evaluation A (Pre-1980)",inactive; negative
ClC(Cl)=C(c1ccc(Cl)cc1)c1ccccc1Cl,mutagenic call,"Species/Cell Type: Nonhuman, Assay Type: Chromosome aberrations in vitro, Assay Code: CY&-, Evaluation Type: Evaluation A (Pre-1980)",inactive; negative
Nc1nc(-c2ccccc2)cs1,mutagenic call,[5],inactive; negative
O=P1(N2CC2)NC2CCCC3CCCC(N1)C32 (centres undefined),mutagenic call,[2],active; positive
Clc1cccc(Cl)c1,mutagenic call,"Species/Cell Type: Mammalian polychromatic erythrocytes, Assay Type: Micronucleus test, chromosome aberrations, Assay Code: MNT+, Evaluation Type: Evaluation B (Post-1980)",active; positive
CCCCN(N=O)/C(N)=N/[N+](=O)[O-],mutagenic call,[7],active; positive
same,mutagenic call,[3],active; positive
CCNc1nc(Cl)nc(NC(C)C)n1,mutagenic call,"Species/Cell Type: Aspergillus nidulans, Assay Type: Reverse gene mutation, Assay Code: ASR+*, Activation: With metabolic activation, Evaluation Type: Evaluation A (Pre-1980)",active; positive
same,mutagenic call,"Species/Cell Type: Drosophila melanogaster, Assay Type: Aneuploidy, sex chromosome gain, chromosome aberrations, Assay Code: DAGT, Evaluation Type: Evaluation A (Pre-1980)",no conclusion
same,mutagenic call,"Species/Cell Type: Drosophila melanogaster, Assay Type: Aneuploidy, whole sex chromosome loss, chromosome aberrations, Assay Code: DACT, Evaluation Type: Evaluation A (Pre-1980)",no conclusion
same,mutagenic call,[11],no conclusion
same,mutagenic call,[6],active; positive
same,mutagenic call,"Species/Cell Type: Neurospora crassa, Assay Type: Aneuploidy, chromosome aberrations, Assay Code: NEN-, Evaluation Type: Evaluation A (Pre-1980)",inactive; negative
same,mutagenic call,"Species/Cell Type: Saccharomyces cerevisiae, Assay Type: Mitotic recombination or gene conversion, Assay Code: YEC+*, Activation: With metabolic activation, Evaluation Type: Evaluation A (Pre-1980)",active; positive
same,mutagenic call,"Species/Cell Type: Tradescantia species, Assay Type: Gene mutation, Assay Code: TRM-, Evaluation Type: Evaluation A (Pre-1980)",inactive; negative
same,mutagenic call,[8],active; positive
same,mutagenic call,"Species/Cell Type: Zea mays (corn), Assay Type: Gene mutation, Assay Code: ZEM+F, Evaluation Type: Evaluation A (Pre-1980)",active; positive
CC(C)(C)N1CC1,mutagenic call,"Species/Cell Type: Schizosaccharomyces pombe, Assay Type: Reverse gene mutation, Assay Code: YEZ+, Evaluation Type: Evaluation A (Pre-1980)",active; positive
FC(F)OC(Cl)C(F)(F)F (centres undefined),mutagenic call,"Species/Cell Type: Mouse, Sex: Male, Assay Type: Sperm morphology, Assay Code: SPI-, Evaluation Type: Evaluation A (Pre-1980)",inactive; negative
same,mutagenic call,"Species/Cell Type: Nonhuman, Assay Type: Sister-chromatid exchange (SCE) in vitro, Assay Code: SC2T, Evaluation Type: Evaluation B (Post-1980)",no conclusion
same,mutagenic call,[10],no conclusion
CC(=O)Nc1ccc(N=NN(C)C)cc1,mutagenic call,[2],active; positive
same,mutagenic call,"Species/Cell Type: Saccharomyces cerevisiae, Assay Type: Mitotic recombination or gene conversion, Assay Code: YEH+/-*, Activation: With metabolic activation, Evaluation Type: Evaluation A (Pre-1980)","inactive; positive without activation, negative with activation"
O=C(CCl)CCl,mutagenic call,[11],no conclusion
same,mutagenic call,[3],active; positive
OCC(O)CCl (centres undefined),mutagenic call,"Species/Cell Type: Rat, Sex: Male, Assay Type: Sperm morphology, Assay Code: SPAT, Evaluation Type: Evaluation A (Pre-1980)",no conclusion
same,mutagenic call,"Species/Cell Type: Rodents, Sex: Male, Assay Type: Dominant lethal test, Assay Code: DLT-, Evaluation Type: Evaluation A (Pre-1980)",inactive; negative
CCC=O,mutagenic call,[9],active; positive
same,mutagenic call,"Species/Cell Type: Human, Assay Type: Sister-chromatid exchange (SCE) in vitro, Assay Code: SC1+, Evaluation Type: Evaluation B (Post-1980)",active; positive
Cc1cc2ccc(F)cc2c2ccc3ccccc3c12,mutagenic call,[10],no conclusion
CC1C[C@@H]2CCC[C@H]2[C@@H]2CCC3CCCC[C@@H]3[C@@H]12 (some centres undefined),mutagenic call,[4],active; positive
CCOc1ccc2c(c1)C(C)=CC(C)(C)N2,mutagenic call,"Species/Cell Type: Drosophila melanogaster, Assay Type: Sex-linked recessive lethal gene mutation, Assay Code: SRL-, Evaluation Type: Evaluation A (Pre-1980)",inactive; negative
same,mutagenic call,"Species/Cell Type: Salmonella typhimurium (one or more of the five standard strains: TA98, TA100, TA1535, TA1537, and TA1538), Assay Type: Histidine reverse gene mutation, Ames assay, Assay Code: SAL-, Evaluation Type: Evaluation A (Pre-1980)",inactive; negative
